Test results reported in US20040152895A1, “Sulfonamides” (priority 2003, published 2004).

Molecular target: T1, human and rat GPR-14 (UniProt Q9UKP6)
T1 sequence (Q9UKP6 1-389): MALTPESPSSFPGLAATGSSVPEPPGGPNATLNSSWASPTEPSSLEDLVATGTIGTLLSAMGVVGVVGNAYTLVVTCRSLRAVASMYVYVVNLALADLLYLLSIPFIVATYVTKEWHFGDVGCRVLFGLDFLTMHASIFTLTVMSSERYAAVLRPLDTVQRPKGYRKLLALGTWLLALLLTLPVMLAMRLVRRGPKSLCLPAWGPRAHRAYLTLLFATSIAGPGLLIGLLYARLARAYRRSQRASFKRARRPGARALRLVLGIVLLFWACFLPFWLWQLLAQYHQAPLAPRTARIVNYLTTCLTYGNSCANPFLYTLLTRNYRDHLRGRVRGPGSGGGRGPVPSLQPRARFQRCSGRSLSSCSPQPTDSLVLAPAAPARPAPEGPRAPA
Assay: Radioligand binding assay ([125I] h-U-II)
Conditions: HEK-293 cell membranes, 200 pM [125I] h-U-II
Method: HEK-293 cell membranes containing stable cloned human and rat GPR-14 (20 ug/assay) were incubated with 200 pM [125I] h-U-II (200 Ci/mmol^−1 in the presence of increasing concentrations of test compounds in DMSO (0.1 nM to 10 uM), in a final incubation volume of 200 ul (20 mM Tris-HCl, 5 mM MgCl2). Incubation was done for 30 minutes at room temperature followed by filtration GF/B filters with Brandel cell harvester. ^125I labeled U-II binding was quantitated by gamma counting. Nonspecific binding was defined by ^125I U-II binding in the presence of 100 nM of unlabeled human U-II. Analysis of the data was performed by nonlinear least square fitting.

- Ki: 220 nM
SMILES: CCCSc1ncc(S(=O)(=O)Nc2ccc(Cl)c(OCCN(C)C)c2)c(OC)n1 [Example 1, 4-methoxy-2-propylsulfanyl-pyrimidine-5-sulfonic Acid [4-chloro-3-(2-dimethylamino-ethoxy)-phenyl]-amide]
